The IC50 is the concentration needed to halve the response being measured.

We go through twelve compounds from PMC3704662, “Synthesis, docking and acetylcholinesterase inhibitory assessment of 2-(2-(4-Benzylpiperazin-1-yl)ethyl)isoindoline-1,3-dione derivatives with potential anti-Alzheimer effects” (DARU Journal of Pharmaceutical Sciences, 2013).

This experiment has as its target T1, acetylcholinesterase from electric eel (AChE, E.C. 3.1.1.7, Type V-S) (Electrophorus electricus, UniProt O42275).
T1 construct: purchased Sigma-Aldrich (Steinheim, Germany) Type V-S (catalogue number not given)
Put plainly: biochemical. The note with it: Ellman test; IC50 ± SEM; 15 min preincubation at 25°C; pH 8.0; acetylthiocholine iodide substrate; triplicate; read-out: IC50 of in vitro acetylcholinesterase assay. As to the method: Lyophilized powder of acetylcholinesterase from electric eel source (AChE, E.C. 3.1.1.7, Type V-S, 1000 unit) was purchased from Sigma-Aldrich (Steinheim, Germany). 5,5’-Dithiobis-(2-nitrobenzoic acid), potassium dihydrogen phosphate, dipotassium hydrogen phosphate, potassium hydroxide, sodium hydrogen carbonate, and acetylthiocholine iodide were purchased from Fluka (Buchs, Switzerland). […] The Ellman test was carried out for assessment of the anticholinesterase activity of intended compounds in vitro. Prior to use, all solutions were adjusted to 25°C. […] The assay solution consisted of a 0.1 M potassium phosphate buffer pH 8.0, with the addition of 0.01 M 5,50-dithio-bis(2-nitrobenzoic acid), 2.5 unit/mL of enzyme solution (AChE, E.C. 3.1.1.7, Type V-S, lyophilized powder, from electric eel) (Sigma Chemical). […] After rapid and immediate mixing the change of absorption was measured at 412 nm. In order to justify non enzymatic reaction assays were carried out with a blank containing all components except AChE.
The blank reading contained 3 ml buffer, 200 μl water, 100 μl DTNB and 20 μl substrate. The reaction rates were calculated, and the percent inhibition of test compounds was determined. Each concentration was analyzed in triplicate, and IC50 values were determined graphically from inhibition curves (log inhibitor concentration vs percent of inhibition).
On the technique in general: Ellman's reagent forms a yellow product with free thiols.

T1 sequence (O42275 24-633): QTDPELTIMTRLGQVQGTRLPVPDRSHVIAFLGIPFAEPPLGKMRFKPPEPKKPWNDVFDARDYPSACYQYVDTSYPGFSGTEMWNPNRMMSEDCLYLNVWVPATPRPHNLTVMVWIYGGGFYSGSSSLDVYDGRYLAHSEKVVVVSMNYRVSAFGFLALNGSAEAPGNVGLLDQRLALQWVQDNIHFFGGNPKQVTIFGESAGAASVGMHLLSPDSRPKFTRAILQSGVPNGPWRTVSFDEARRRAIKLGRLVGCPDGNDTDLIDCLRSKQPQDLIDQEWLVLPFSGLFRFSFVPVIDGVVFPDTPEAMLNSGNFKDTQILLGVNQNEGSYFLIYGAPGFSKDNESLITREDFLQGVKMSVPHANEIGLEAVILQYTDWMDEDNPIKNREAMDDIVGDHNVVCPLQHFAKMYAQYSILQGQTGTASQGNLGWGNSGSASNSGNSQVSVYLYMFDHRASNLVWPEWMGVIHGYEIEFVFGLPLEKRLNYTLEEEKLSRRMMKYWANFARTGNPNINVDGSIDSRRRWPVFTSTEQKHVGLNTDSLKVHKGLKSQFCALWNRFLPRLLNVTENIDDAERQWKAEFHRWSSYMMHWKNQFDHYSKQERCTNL

As to `O=C1c2ccccc2C(=O)N1CCN1CCN(Cc2ccccc2Cl)CC1` [Compound 4a, 2-(2-(4-(2-Chlorobenzyl)piperazin-1-yl)ethyl)isoindoline-1,3-dione], the IC50 came out at 0.91 ± 0.045 µM.
The value for `O=C1c2ccccc2C(=O)N1CCN1CCN(Cc2cccc(Cl)c2)CC1` [Compound 4b, 2-(2-(4-(3-Chlorobenzyl)piperazin-1-yl)ethyl)isoindoline-1,3-dione] was 85 ± 12 µM.
As for `O=C1c2ccccc2C(=O)N1CCN1CCN(Cc2ccc(Cl)cc2)CC1` [Compound 4c, 2-(2-(4-(4-Chlorobenzyl)piperazin-1-yl)ethyl)isoindoline-1,3-dione], the IC50 is 26 ± 5 µM.
Next, `O=C1c2ccccc2C(=O)N1CCN1CCN(Cc2ccccc2F)CC1` [Compound 4d, 2-(2-(4-(2-Fluorobenzyl)piperazin-1-yl)ethyl)isoindoline-1,3-dione]: 23 ± 7 µM.
The value for `O=C1c2ccccc2C(=O)N1CCN1CCN(Cc2cccc(F)c2)CC1` [Compound 4e, 2-(2-(4-(3-Fluorobenzyl)piperazin-1-yl)ethyl)isoindoline-1,3-dione] was 74 ± 11 µM; that for `O=C1c2ccccc2C(=O)N1CCN1CCN(Cc2ccc(F)cc2)CC1` [Compound 4f, 2-(2-(4-(4-Fluorobenzyl)piperazin-1-yl)ethyl)isoindoline-1,3-dione] was 42 ± 8 µM.
Next, `COc1cccc(CN2CCN(CCN3C(=O)c4ccccc4C3=O)CC2)c1` [Compound 4g, 2-(2-(4-(3-Methoxybenzyl)piperazin-1-yl)ethyl)isoindoline-1,3-dione]: 5.5 ± 0.7 µM; `COc1ccc(CN2CCN(CCN3C(=O)c4ccccc4C3=O)CC2)cc1` [Compound 4h, 2-(2-(4-(4-Methoxybenzyl)piperazin-1-yl)ethyl)isoindoline-1,3-dione]: 72 ± 9 µM; `O=C1c2ccccc2C(=O)N1CCN1CCN(Cc2ccccc2[N+](=O)[O-])CC1` [Compound 4i, 2-(2-(4-(2-Nitrobenzyl)piperazin-1-yl)ethyl)isoindoline-1,3-dione]: 36 ± 5 µM.
Regarding `O=C1c2ccccc2C(=O)N1CCN1CCN(Cc2cccc([N+](=O)[O-])c2)CC1` [Compound 4j, 2-(2-(4-(3-Nitrobenzyl)piperazin-1-yl)ethyl)isoindoline-1,3-dione], the IC50 stood at 59 ± 6 µM.
The value for `O=C1c2ccccc2C(=O)N1CCN1CCN(Cc2ccc([N+](=O)[O-])cc2)CC1` [Compound 4k, 2-(2-(4-(4-Nitrobenzyl)piperazin-1-yl)ethyl)isoindoline-1,3-dione] was 40 ± 4 µM; that for `O=C1c2ccccc2C(=O)N1CCN1CCN(Cc2ccccc2)CC1` [Compound 4l, 2-(2-(4-Benzylpiperazin-1-yl)ethyl)isoindoline-1,3-dione] was 9 ± 2 µM.
